≈ marks a conversion by molar mass, not a printed value. Entries after “also recorded” stand apart in the source; their conditions may differ. Like-named read-outs stand apart in the source and are kept apart here.
How the values were obtained:
B. cereus ATCC 9634 = assay: antimicrobial spectrum, broth dilution method; format: cell-based; conditions: Bacillus cereus
Protocol: (§1) 1. The antimicrobial spectrum of aclacinomycins A and B was determined by the broth dilution method as follows: […]

B. megaterium = assay: antimicrobial spectrum, broth dilution method; format: cell-based; conditions: Priestia megaterium, read-out: Minimum Inhibitory Concentration
Protocol: as §1

[1] = test system: Bacillus subtilis ATCC 6633; assay: antimicrobial spectrum, broth dilution method; format: cell-based
Protocol: as §1

Can. albicans IAM 4905 = assay: antimicrobial spectrum, broth dilution method; format: cell-based; conditions: Candida albicans
Protocol: as §1

Cory. bovis 1810 = assay: antimicrobial spectrum, broth dilution method; format: cell-based
Protocol: as §1

Diplo. pneumoniae Type 1 = assay: antimicrobial spectrum, broth dilution method; format: cell-based; conditions: Streptococcus pneumoniae
Protocol: as §1

Diplo. pneumoniae Type 3 = assay: antimicrobial spectrum, broth dilution method; format: cell-based; conditions: Streptococcus pneumoniae
Protocol: as §1

Mic. flavus = assay: antimicrobial spectrum, broth dilution method; format: cell-based; conditions: Micrococcus flavus, read-out: Minimum Inhibitory Concentration
Protocol: as §1

Ps. aeruginosa A20229 = assay: antimicrobial spectrum, broth dilution method; format: cell-based; conditions: Pseudomonas aeruginosa
Protocol: as §1

St. pyogenes NY 5 = assay: antimicrobial spectrum, broth dilution method; format: cell-based; conditions: Streptococcus pyogenes
Protocol: as §1

Staph. aureus FDA 209P = assay: antimicrobial spectrum, broth dilution method; format: cell-based; conditions: Staphylococcus aureus, FDA209P, read-out: Minimum Inhibitory Concentration
Protocol: as §1

Staph. aureus Smith = assay: antimicrobial spectrum, broth dilution method; format: cell-based; conditions: Staphylococcus aureus, read-out: Minimum Inhibitory Concentration
Protocol: as §1

Strept. faecalis = assay: antimicrobial spectrum, broth dilution method; format: cell-based; conditions: Enterococcus faecalis, read-out: Minimum Inhibitory Concentration
Protocol: as §1

[2] = test system: Gram-positive bacteria and yeasts; assay: antimicrobial activity (summary in words); format: cell-based
[3] = test system: P388 cells or L1210 cells; assay: survival of BDF1 mice inoculated with P388 or L1210 cells; format: in vivo; conditions: for T/C / 30 day survivors / Mean survival time: daily for 10 days; for 30 day survivors: control 0/8; for Mean survival time: control 10.0; for survival time prolonged, rate compared with control mice: dosage range 0.5 to 5 mg./kg. per day, i.p. daily for 10 days
Protocol: 2. […] For example, when BDF1 mice weighing 18 to 22 grams are inoculated with 1 × 10^6 cells of P388 cells or 5 × 10^5 cells of L1210 cells intraperitoneally and aclacinomycin A and B and aclacinomycin A-DNA complex are administered intraperitoneally once daily for 10 days consecutively 24 hours after the inoculation, the survival time of the mice is prolonged remarkably at the rate of over 150% in a dosage range of 0.5 to 5 mg./kg. of body weight per day compared with control mice receiving no antibiotic, as shown in the following table: […]

[4] = acute toxicity, single injection; format: in vivo, Mouse; conditions: mouse, in vivo, single injection
Mouse = assay: acute toxicity, single injection; format: in vivo; conditions: mice
[5] = acute toxicity, single injection; format: in vivo, Rat; conditions: rat, in vivo, single injection
Rat = assay: acute toxicity, single injection; format: in vivo; conditions: rats
rabbits = assay: lethal dose (LD50) on rabbits; format: in vivo
hamsters = assay: acute cardiac alterations in the electrocardiograms of hamsters / cardiotoxicity; conditions: hamster, in vivo
L1210 cells = assay: cells; format: cell-based, mice; conditions: 3 days; for IC50: Mus musculus, L1210, 72 h, 37° C., read-out: ID50, growth; for inhibition of cell growth: below 1 mcg./ml. in the medium
[6] = test system: DNA synthesis (L1210 cells); assay: cells; format: cell-based, mice; conditions: Mus musculus, L1210, 1 h; 14C-precursor incorporation, 37° C., 60 min.; read-out: ID50, DNA synthesis
[7] = test system: RNA synthesis (L1210 cells); assay: cells; format: cell-based, mice; conditions: for IC50: Mus musculus, L1210, 1 h, 14C-precursor incorporation, 37° C., 60 min., read-out: ID50, RNA synthesis
[8] = test system: Protein synthesis (L1210 cells); assay: cells; format: cell-based, mice; conditions: Mus musculus, L1210, 1 h; 14C-precursor incorporation, 37° C., 60 min.; read-out: ID50, Protein synthesis
Vaccinia virus = assay: microbe, parasite or virus in culture; format: cell-based
[9] = test system: nucleic acid biosynthesis (L1210 cells); format: cell-based, mice; conditions: below 1 mcg./ml. in the medium, 60 min.
lymphoma 6C3HED = lymphoma 6C3HED in mice (summary in words); format: in vivo
leukemia L1210 = leukemia L1210 in mice (summary in words); format: in vivo
leukemia P388 = leukemia P388 in mice (summary in words); format: in vivo
various animal tumors = assay: antitumor activity in animal tumors (summary in words); format: in vivo; conditions: experimental animal tumors
[10] = test system: cultured mammalian tumor cells; assay: growth of tumor cells in culture (summary in words); format: cell-based
solubility = conditions: for solubility in low polar solvents: ether, hexane, cyclohexane, petroleum ether as listed; for solubility in organic solvents: methanol, ethanol, chloroform, ethyl acetate, acetone etc.
[11] = basicity and lipophilicity

SMILES: CCC1(O)CC(OC2CC(N(C)C)C(OC3CC(O)C(OC4CCC(=O)C(C)O4)C(C)O3)C(C)O2)c2c(cc3c(c2O)C(=O)c2c(O)cccc2C3=O)C1C(=O)OC (centres unmarked) [Aclacinomycin A]
- MIC (B. cereus ATCC 9634; ATCC9634, broth dilution, read-out: Minimum Inhibitory Concentration): < 0.2 µg/mL
- MIC (B. megaterium; broth dilution): < 0.63 µg/mL
- MIC ([1]; ATCC6633, broth dilution, read-out: Minimum Inhibitory Concentration): < 0.2 µg/mL
- MIC (Can. albicans IAM 4905; IAM4905, broth dilution, read-out: Minimum Inhibitory Concentration): 10 µg/mL (≈ 12.3 µM)
- MIC (Cory. bovis 1810; Corynebacterium bovis, 1810, broth dilution, read-out: Minimum Inhibitory Concentration): < 0.2 µg/mL
- MIC (Diplo. pneumoniae Type 1; TYPE1, broth dilution, read-out: Minimum Inhibitory Concentration): 0.63 µg/mL (≈ 0.776 µM)
- MIC (Diplo. pneumoniae Type 3; TYPE3, broth dilution, read-out: Minimum Inhibitory Concentration): 0.63 µg/mL (≈ 0.776 µM)
- MIC (Mic. flavus; broth dilution): < 0.2 µg/mL
- MIC (Ps. aeruginosa A20229; A20229, broth dilution, read-out: Minimum Inhibitory Concentration): > 100 µg/mL
- MIC (St. pyogenes NY 5; NY5, broth dilution, read-out: Minimum Inhibitory Concentration): 1.25 µg/mL (≈ 1.54 µM)
- MIC (Staph. aureus FDA 209P; broth dilution): < 0.63 µg/mL
- MIC (Staph. aureus Smith; broth dilution): < 0.2 µg/mL
- MIC (Strept. faecalis; broth dilution): 2.5 µg/mL (≈ 3.08 µM)
- antimicrobial activity [2]: effective in preventing the growth; also recorded: strong antimicrobial activity
- T/C ([3]; 0.5 mg./kg./day i.p.): 230%
- 30 day survivors ([3]; 0.5 mg./kg./day i.p.): 2/4
- Mean survival time ([3]; 0.5 mg./kg./day i.p.): 23.0 days
- T/C ([3]; 1.0 mg./kg./day i.p.): 280%
- 30 day survivors ([3]; 1.0 mg./kg./day i.p.): 3/4
- Mean survival time ([3]; 1.0 mg./kg./day i.p.): 28.0 days
- T/C ([3]; 2.0 mg./kg./day i.p.): 300%
- 30 day survivors ([3]; 2.0 mg./kg./day i.p.): 4/4
- Mean survival time ([3]; 2.0 mg./kg./day i.p.): 30.0 days
- T/C ([3]; 4.0 mg./kg./day i.p.): 215%
- 30 day survivors ([3]; 4.0 mg./kg./day i.p.): 1/4
- Mean survival time ([3]; 4.0 mg./kg./day i.p.): 21.5 days
- survival time prolonged, rate compared with control mice [3]: over 150%
- LD50 ([4]; ip, intraperitoneal): 22.6 mg/kg
- LD50 ([4]; intravenous): 33.7 mg/kg
- lethal dose (LD50), in words (Mouse): high lethal dose
- LD50 ([5]; ip, intraperitoneal): 25 to 50 mg/kg
- LD50 ([5]; intravenous): 32.5 mg/kg
- lethal dose (LD50), in words (Rat): high lethal dose
- lethal dose (LD50), in words (rabbits): high lethal dose
- cardiotoxicity on hamsters (hamsters): extremely low cardiotoxicity
- IC50 (L1210 cells): 0.12 µg/mL (≈ 0.148 µM)
- inhibition of cell growth (L1210 cells): over 50%
- IC50 [6]: 1.1 µg/mL (≈ 1.35 µM)
- inhibition of RNA synthesis (in words) [7]: specific inhibition on RNA synthesis
- IC50 [7]: 0.1 µg/mL (≈ 0.123 µM)
- IC50 [8]: 6.3 µg/mL (≈ 7.76 µM)
- inhibition of growth of vaccinia virus (in words) (Vaccinia virus; HeLa cells): effective in inhibiting the growth
- IC50 (Vaccinia virus; Orthopoxvirus vaccinia, HeLa, read-out: ID50, Vaccinia virus): < 10 µg/mL
- inhibition of nucleic acid biosynthesis [9]: over 50%
- inhibition of growth of lymphoma 6C3HED (lymphoma 6C3HED): effective in inhibiting the growth
- life prolongation, mice inoculated with lymphoma 6C3HED (lymphoma 6C3HED): markedly prolong the lives
- inhibition of growth of leukemia L1210 (leukemia L1210): effective in inhibiting the growth
- life prolongation, mice inoculated with leukemia L1210 (leukemia L1210): markedly prolong the lives
- inhibition of growth of leukemia P388 (leukemia P388): effective in inhibiting the growth
- life prolongation, mice inoculated with leukemia P388 (leukemia P388): markedly prolong the lives
- antitumor activity (in words) (various animal tumors): marked inhibitory effects; also recorded: potent antitumor activity
- inhibition of growth of tumor cells in culture (in words) [10]: remarkable inhibitory effect
- solubility in low polar solvents (solubility): insoluble
- solubility in organic solvents (solubility): soluble
- solubility in water (solubility): slightly soluble
- basicity [11]: weakly basic

SMILES: CCC1(O)CC(OC2CC(N(C)C)C(OC3CC4OC5CC(=O)C(C)OC5OC4C(C)O3)C(C)O2)c2c(cc3c(c2O)C(=O)c2c(O)cccc2C3=O)C1C(=O)OC (centres unmarked) [Aclacinomycin B]
- MIC (B. cereus ATCC 9634; ATCC9634, read-out: Minimum Inhibitory Concentration): < 0.2 µg/mL
- MIC (B. megaterium): < 0.2 µg/mL
- MIC ([1]; ATCC6633, read-out: Minimum Inhibitory Concentration): < 0.2 µg/mL
- MIC (Can. albicans IAM 4905; IAM4905, read-out: Minimum Inhibitory Concentration): 10 µg/mL (≈ 12.3 µM)
- MIC (Cory. bovis 1810; Corynebacterium bovis, 1810, read-out: Minimum Inhibitory Concentration): < 0.2 µg/mL
- MIC (Diplo. pneumoniae Type 1; TYPE1, read-out: Minimum Inhibitory Concentration): 0.63 µg/mL (≈ 0.778 µM)
- MIC (Diplo. pneumoniae Type 3; TYPE3, read-out: Minimum Inhibitory Concentration): 0.63 µg/mL (≈ 0.778 µM)
- MIC (Mic. flavus): < 0.2 µg/mL
- MIC (Ps. aeruginosa A20229; A20229, read-out: Minimum Inhibitory Concentration): > 100 µg/mL
- MIC (St. pyogenes NY 5; NY5, read-out: Minimum Inhibitory Concentration): 1.25 µg/mL (≈ 1.54 µM)
- MIC (Staph. aureus FDA 209P): < 0.2 µg/mL
- MIC (Staph. aureus Smith): < 0.2 µg/mL
- MIC (Strept. faecalis): 2.5 µg/mL (≈ 3.09 µM)
- antimicrobial activity [2]: effective in inhibiting the growth; also recorded: strong antimicrobial activity
- T/C ([3]; 0.5 mg./kg./day i.p.): 147%
- 30 day survivors ([3]; 0.5 mg./kg./day i.p.): 0/4
- Mean survival time ([3]; 0.5 mg./kg./day i.p.): 14.7 days
- T/C ([3]; 1.0 mg./kg./day i.p.): 190%
- 30 day survivors ([3]; 1.0 mg./kg./day i.p.): 1/4
- Mean survival time ([3]; 1.0 mg./kg./day i.p.): 19.0 days
- T/C ([3]; 2.0 mg./kg./day i.p.): 175%
- 30 day survivors ([3]; 2.0 mg./kg./day i.p.): 0/4
- Mean survival time ([3]; 2.0 mg./kg./day i.p.): 17.5 days
- T/C ([3]; 4.0 mg./kg./day i.p.): 85%
- 30 day survivors ([3]; 4.0 mg./kg./day i.p.): 0/4
- Mean survival time ([3]; 4.0 mg./kg./day i.p.): 8.5 days
- survival time prolonged, rate compared with control mice [3]: over 150%
- LD50 ([4]; ip, intraperitoneal): 13.7 mg/kg
- LD50 ([4]; intravenous): 16.4 mg/kg
- lethal dose (LD50), in words (Mouse): high lethal dose
- LD50 ([5]; ip, intraperitoneal): 10 to 15 mg/kg
- LD50 ([5]; intravenous): 15 mg/kg
- lethal dose (LD50), in words (Rat): high lethal dose
- lethal dose (LD50), in words (rabbits): high lethal dose
- cardiotoxicity on hamsters (hamsters): extremely low cardiotoxicity
- IC50 (L1210 cells): 0.24 µg/mL (≈ 0.296 µM)
- inhibition of cell growth (L1210 cells): over 50%
- IC50 [6]: 4 µg/mL (≈ 4.94 µM)
- inhibition of RNA synthesis (in words) [7]: specific inhibition on RNA synthesis
- IC50 [7]: 0.2 µg/mL (≈ 0.247 µM)
- IC50 [8]: 12 µg/mL (≈ 14.8 µM)
- inhibition of growth of vaccinia virus (in words) (Vaccinia virus): effective in inhibiting the growth
- IC50 (Vaccinia virus; Orthopoxvirus vaccinia, HeLa; read-out: ID50, Vaccinia virus): < 10 µg/mL
- inhibition of nucleic acid biosynthesis [9]: over 50%
- life prolongation, mice inoculated with lymphoma 6C3HED (lymphoma 6C3HED): markedly prolong the lives
- inhibition of growth of leukemia L1210 (leukemia L1210): effective in inhibiting the growth
- life prolongation, mice inoculated with leukemia L1210 (leukemia L1210): markedly prolong the lives
- inhibition of growth of leukemia P388 (leukemia P388): effective in inhibiting the growth
- life prolongation, mice inoculated with leukemia P388 (leukemia P388): markedly prolong the lives
- antitumor activity (in words) (various animal tumors): marked inhibitory effects; also recorded: potent antitumor activity
- inhibition of growth of tumor cells in culture (in words) [10]: remarkable inhibitory effect
- solubility in acidic water (solubility; acidic water): soluble
- solubility in low polar solvents (solubility): insoluble
- solubility in organic solvents (solubility): soluble
- solubility in water (solubility): slightly soluble
- basicity [11]: weakly basic
- lipophilicity [11]: lipophilic

From patent US4071411A, “Antitumor antibiotics aclacinomycins A and B [RD-9187A]” (priority 1974, dated 1978)
